Results on five compounds are retold here after patent US20090221690A1, “Pharmaceutical Composition for the Prevention/Treatment of Bone Disorders and a Process for the Preparation Thereof” (COUNCIL OF SCIENTIFIC AND INDUSTRIAL RESEARCH, priority 2006, published 2009).

Each structure is given as a SMILES string.

The subject of one experiment is osteoblast cells. Nature of the experiment: Quantification of mineralization in osteoblasts (Alizarin red, acetic acid extraction). It counts as cell-based, Balb/c mouse. The note with it: osteoblasts cultured 7 days; vs vehicle control; FIG. 13. As to the method: (§1) Neonatal mouse calvarial cell cultures are prepared as described previously (Endocrinology 139:4743) using slight modification. Briefly, for primary osteoblast cell cultures, frontal and parietal bones from Balb/c mouse neonates (1-3 day old) are digested in 0.1% collagenase/0.1% dispase in α-MEM to obtain 5 sequential digests. The second through fifth digests are combined and grown to confluence at 37° C. and 5% CO2 in air in α-MEM, supplemented with 10% fetal bovine serum (FBS), 2 mM glutamine, 100 U/ml penicillin-streptomycin, Non-essential amino acid solution and sodium pyruvate. The effect of test agents is analysed using the following tests:
For quantification of mineralization which is measured with increased deposition of nascent calcium in osteoblast cells, cells were cultured in the presence of test compounds for 7 days and stained with Alizarin red. Alizarin red was extracted with acetic acid and the intensity of stain, which is directly proportion to the extent of mineralisation, is read at 405 nm.

The test system of experiment [1] is osteoblasts. Briefly: Osteogenic activity of isolated compounds based on alkaline phosphatase expression, MTT and mineralisation in vitro. It counts as cell-based. An excerpt:
K051, K052, K054, K080, K082 (isolated from n-butanol soluble fraction) and K095 (isolated from chloroform soluble fraction) (FIGS. 11-15; Tables 10-11).

In experiment [2] the test system is osteoblasts cultured on sterile bovine bone slices. Nature of the experiment: Mineralisation by osteoblasts cultured on bovine bone slices, Alizarin red staining. The following applies: osteoblasts on bovine bone slices, 15 days; alone or in combination; FIGS. 14 and 15. The experiment is classed as cell-based, Balb/c mouse. As to the method:
as §1
(§2) Cells are seeded onto sterile bovine bone slices in 96-well plate and treated with the culture medium containing α-MEM, supplemented with 10% fetal bovine serum, 2 mM glutamine, 100 U/ml penicillin-streptomycin, non-essential amino acid solution, sodium pyruvate, 10 mM P-glycerophosphate and 50 μg/ml ascorbic acid. Culture medium is changed every alternate day. At termination of the culture, cells are washed twice with PBS, fixed in cold 70% ethanol for 1 h and washed once with water and stained with 40 mM Alizarin red (pH 4.7) for 30 min and then washed in PBS to remove excess staining.
as §2, with “In case of osteoblasts” for “Cells are”, “slices, the cells are cultured” for “slices”, “in A-MEM” for “and treated with the culture medium containing α-MEM,”, “p-glycerophosphate” for “P-glycerophosphate”, “acid in the absence or presence of test compounds or their mixtures.” for “acid.”, “culture after 15 days,” for “culture,”

For another experiment, the system named is primary osteoblasts. Briefly: MTT assay for cell proliferation, primary osteoblast cell culture. It counts as cell-based, Balb/c mouse. The following applies: for Osteoblast cell proliferation (MTT assay) / osteoblast cell proliferation vs vehicle control: 24 h; for Osteoblast cell proliferation (MTT assay): Vehicle 0.60 ± 0.06, Mean±SEM; for osteoblast cell proliferation vs vehicle control: 10^−11 M to 10^−5 M. The method, then: as §1
MTT assay is a common assay used for assessing cell proliferation where tetrazolium salt is reduced to formazone crystals by the mitochondrial dehydrogenase enzyme, which are then dissolved in DMSO. More the number of metabolically active cells more will be the formazone crystals formed. Briefly, osteoblast cells are maintained in α-MEM medium supplemented with 10% FCS and 1% antibiotic solution in 96 well plate. When the cells attain 40% confluency, they are treated in presence or absence of test agents in 2% FCS supplemented media for 24 h. Twenty-four hours thereafter, MTT salt is added to the cells. After 4 h, the formazone crystals formed are dissolved in DMSO and readings taken at wavelength of 570 nm.
This assay is based on the ability of viable cells to reduce tetrazolium salt to form formazone crystals by mitochondrial dehydrogenase enzyme. In MTT assay, osteoblasts are maintained in α-MEM medium supplemented with 10% FCS and 1% antibiotic solution in 96 well plate. When the cells attain 40% confluency, they are treated in presence or absence of test agents in 2% FCS supplemented media for 24 h. Twenty-four hours thereafter, MTT salt is added to the cells. After 4 h, the formazone crystals formed due to reduction of tetrazolium salt by mitochondrial dehydrogenase enzyme are dissolved in DMSO and readings taken at wavelength of 570 nm. All the five pure compounds nos.
For orientation: Tetrazolium assays rely on reduction of a dye to a coloured formazan, in cell work by metabolically active cells.

In experiment [3] the test system is osteoblasts. Nature of the experiment: Quantification of alkaline phosphatase activity in osteoblasts. The experiment is classed as cell-based, Balb/c mouse. On the set-up: alkaline phosphatase activity: unit not given here. The following applies: 48 h; for alkaline phosphatase activity: Control 1.87 ± 0.20, Mean±SEM; for expression of alkaline phosphatase vs vehicle control: 10^−11 M to 10^−5 M. As to the method: as §1
p-Nitrophenol phosphate is a colorless substrate which is hydrolysed to colored p-nitrophenol by alkaline phosphatase enzyme. Rate of hydrolysis of p-nitrophenol phosphate is proportional to enzyme present in sample. […] Findings reveal that all the five pure compounds nos.

On to `COc1cc(O)c2c(=O)c(-c3ccc(O)cc3O)coc2c1` [Compound K051, 2′,4′,5-trihydroxy-7-methoxy isoflavones], for which, in the experiment on osteoblast cells, the “mineralisation quantified by alizarin extraction method” value (“mineralisation quantified” below) is given as “enhanced mineralisation”. The osteogenic activity result in the experiment on osteoblasts [1] is listed as “promising osteogenic activity”. Moreover, in experiment [2], the “intensity of alizarin red staining (rate of new bone formation)” value (shortened to “intensity of alizarin red staining”) was “increased intensity of alizarin red staining”. Also, the “Osteoblast cell proliferation (MTT assay)” value is recorded as 1.32 ± 0.05 with primary osteoblasts (10^−5 M); 1.34 ± 0.09 with primary osteoblasts (10^−6 M); 1.33 ± 0.01 in the experiment with primary osteoblasts (10^−7 M); 1.32 ± 0.04 with primary osteoblasts (10^−8 M); 1.03 ± 0.03 in the experiment on primary osteoblasts (10^−9 M); 0.92 ± 0.05 in the experiment with primary osteoblasts (10^−10 M). Besides, in the experiment with primary osteoblasts (10^−11 M), the “Osteoblast cell proliferation (MTT assay)” value amounted to 0.85 ± 0.05. Besides, in the experiment on primary osteoblasts, the “osteoblast cell proliferation vs vehicle control” value is listed as “enhanced osteoblast cell proliferation”. Moreover, the alkaline phosphatase activity in the experiment with osteoblasts [3] (10^−5 M) was 3.26 ± 0.07; with osteoblasts [3] (10^−6 M), 3.24 ± 0.09; in the experiment on osteoblasts [3] (10^−7 M), 3.23 ± 0.11; in the experiment on osteoblasts [3] (10^−8 M) it was 3.41 ± 0.12; with osteoblasts [3] (10^−9 M) it was 3.50 ± 0.07; with osteoblasts [3] (10^−10 M) it was 3.59 ± 0.08. In the experiment with osteoblasts [3] (10^−11 M), this compound showed an alkaline phosphatase activity of 3.63 ± 0.04. In the experiment with osteoblasts [3], the “expression of alkaline phosphatase vs vehicle control” value (from here on “expression … vs vehicle control”) was “increased expression of alkaline phosphatase”.

Take `COc1ccc2c(=O)c(-c3ccc(O)cc3)coc2c1` [Compound K052, 4′-hydroxy, 7-methoxy-isoflavone]: in the experiment with osteoblast cells, the “mineralisation quantified” value is recorded as “enhanced mineralisation”. For the same compound, the osteogenic activity entry in the experiment on osteoblasts [1] is “promising osteogenic activity”. Further, the “intensity of alizarin red staining” value in experiment [2] was “increased intensity of alizarin red staining”. For the same compound, the “Osteoblast cell proliferation (MTT assay)” value was determined as 1.19 ± 0.01 in the experiment on primary osteoblasts (10^−5 M); 1.86 ± 0.13 in the experiment on primary osteoblasts (10^−6 M); 1.70 ± 0.15 in the experiment on primary osteoblasts (10^−7 M); 1.73 ± 0.09 with primary osteoblasts (10^−8 M); 1.70 ± 0.08 with primary osteoblasts (10^−9 M); 1.43 ± 0.05 with primary osteoblasts (10^−10 M). Also, the “Osteoblast cell proliferation (MTT assay)” value with primary osteoblasts (10^−11 M) was determined as 1.45 ± 0.23. Besides, the “osteoblast cell proliferation vs vehicle control” value with primary osteoblasts is listed as “enhanced osteoblast cell proliferation”. The “relative potency in osteoblast proliferation (MTT)” value with primary osteoblasts (order K052, K080, K095, K051, K054) is listed as “most potent”. In addition, the alkaline phosphatase activity in the experiment on osteoblasts [3] (10^−5 M) was determined as 2.29 ± 0.24; with osteoblasts [3] (10^−6 M) it was 3.01 ± 0.09; in the experiment on osteoblasts [3] (10^−7 M), 3.05 ± 0.10; in the experiment with osteoblasts [3] (10^−8 M), 3.20 ± 0.06; in the experiment with osteoblasts [3] (10^−9 M), 3.07 ± 0.10; with osteoblasts [3] (10^−10 M) it was 3.01 ± 0.26. In the experiment on osteoblasts [3] (10^−11 M), the alkaline phosphatase activity came to 3.17 ± 0.06. Moreover, the “expression … vs vehicle control” value with osteoblasts [3] is given as “increased expression of alkaline phosphatase”.

As for `COc1ccc(-c2coc3cc(O)ccc3c2=O)cc1O` [Compound K054, 7, 3′-dihydroxy-4′-methoxyisoflavone], in the experiment with osteoblast cells, the “mineralisation quantified” value is recorded as “enhanced mineralisation”. Moreover, the osteogenic activity result in the experiment on osteoblasts [1] is “promising osteogenic activity”. The “intensity of alizarin red staining” value in experiment [2] was “increased intensity of alizarin red staining”. Moreover, the “Osteoblast cell proliferation (MTT assay)” value in the experiment on primary osteoblasts (10^−5 M) is recorded as 1.40 ± 0.02; in the experiment with primary osteoblasts (10^−6 M), 1.24 ± 0.01; in the experiment on primary osteoblasts (10^−7 M), 1.26 ± 0.07; in the experiment with primary osteoblasts (10^−8 M), 1.24 ± 0.06; in the experiment with primary osteoblasts (10^−9 M), 1.06 ± 0.04; in the experiment with primary osteoblasts (10^−10 M), 0.88 ± 0.09. The “Osteoblast cell proliferation (MTT assay)” value with primary osteoblasts (10^−11 M) is listed as 0.75 ± 0.06. For the same compound, in the experiment on primary osteoblasts, the “osteoblast cell proliferation vs vehicle control” value was “enhanced osteoblast cell proliferation”. The alkaline phosphatase activity in the experiment on osteoblasts [3] (10^−5 M) came to 2.65 ± 0.09; with osteoblasts [3] (10^−6 M), 3.25 ± 0.07; in the experiment with osteoblasts [3] (10^−7 M), 3.32 ± 0.06; in the experiment with osteoblasts [3] (10^−8 M), 3.35 ± 0.03; in the experiment on osteoblasts [3] (10^−9 M), 3.32 ± 0.09; with osteoblasts [3] (10^−10 M) it was 3.22 ± 0.12. The same compound gave an alkaline phosphatase activity with osteoblasts [3] (10^−11 M) of 3.01 ± 0.25. For the same compound, the “expression … vs vehicle control” value with osteoblasts [3] was “increased expression of alkaline phosphatase”.

For the compound `COc1ccc(-c2coc3cc(O)ccc3c2=O)cc1` [Compound K080, 7-hydroxy, 4′-methoxy-isoflavone], in the experiment with osteoblast cells, the “mineralisation quantified” value is listed as “enhanced mineralisation”. Moreover, the osteogenic activity result in the experiment on osteoblasts [1] is “promising osteogenic activity”. Moreover, in experiment [2], the “intensity of alizarin red staining” value is given as “increased intensity of alizarin red staining”. The “Osteoblast cell proliferation (MTT assay)” value was found to be 1.49 ± 0.03 in the experiment on primary osteoblasts (10^−5 M); 1.55 ± 0.05 in the experiment with primary osteoblasts (10^−6 M); 1.43 ± 0.09 with primary osteoblasts (10^−7 M); 1.47 ± 0.02 with primary osteoblasts (10^−8 M); 1.58 ± 0.09 with primary osteoblasts (10^−9 M); 1.35 ± 0.03 in the experiment on primary osteoblasts (10^−10 M). For the same compound, the “Osteoblast cell proliferation (MTT assay)” value in the experiment with primary osteoblasts (10^−11 M) was 1.25 ± 0.09. Moreover, in the experiment on primary osteoblasts, the “osteoblast cell proliferation vs vehicle control” value was “enhanced osteoblast cell proliferation”. Further, the alkaline phosphatase activity in the experiment with osteoblasts [3] (10^−5 M) amounted to 3.45 ± 0.06; with osteoblasts [3] (10^−6 M), 3.40 ± 0.02; in the experiment with osteoblasts [3] (10^−7 M), 3.46 ± 0.06; with osteoblasts [3] (10^−8 M) it was 3.30 ± 0.01; with osteoblasts [3] (10^−9 M), 3.33 ± 0.02; with osteoblasts [3] (10^−10 M), 3.27 ± 0.08. The same compound came in with an alkaline phosphatase activity with osteoblasts [3] (10^−11 M) of 3.38 ± 0.02. Besides, in the experiment with osteoblasts [3], the “expression … vs vehicle control” value was “increased expression of alkaline phosphatase”.

Regarding `COc1ccc(-c2c(C)oc3cc(O)ccc3c2=O)cc1` [Compound K082, 2-methyl, 7-hydroxy, 4′-methoxy isoflavone], the “mineralisation quantified” value with osteoblast cells is “enhanced mineralisation”. Besides, the osteogenic activity result in the experiment on osteoblasts [1] was “promising osteogenic activity”. Moreover, the “intensity of alizarin red staining” value in experiment [2] is “increased intensity of alizarin red staining”.
